Data: patent US20220143198A1, “COMPOSITIONS AND METHODS RELATED TO TETHERED KETHOXAL DERIVATIVES” (The University of Chicago, priority 2019, published 2022)

Experiments:
[1] = tested on: guanosine; experiment: Reversibility of kethoxal derivatives using GTP for competition (LCMS of free guanosine); type: physicochemical; conditions: 1:1 ratio
[2] = tested on: guanosine; experiment: Reversibility of kethoxal derivatives by adjusting pH (kethoxal-guanosine adduct dissociation); type: physicochemical
[3] = tested on: guanosine; experiment: Reactivity of kethoxal derivatives with guanosine (conversion rates of guanosine); type: biochemical
[4] = pH = 7.0, 10 min, excess GTP added after 10 min
[5] = pH = 7.0, 2 h, excess GTP competitor
[6] = pH = 7.0, 24 h, excess GTP competitor
[7] = pH = 7.8, S1:S2 = 2:1 (S1 guanosine, S2 kethoxal derivative)

| Structure (SMILES) | Conversion of guanosine under competition condition [1, 4] [%] | Conversion of guanosine under competition condition [1, 5] [%] | Conversion rate of guanosine ([3]; pH = 7.0, S1:S2 = 1:1) [%] | Conversion rate of guanosine ([3]; pH = 7.0, S1:S2 = 1:2) [%] | Conversion rate of guanosine ([3]; pH = 7.0, S1:S2 = 2:1) [%] | other results |
| --- | --- | --- | --- | --- | --- | --- |
| CC(C(=O)C=O)N(C)C(=O)CN=[N+]=[N-] (stereo not drawn) [drawing 86] | 41.8 | 26.1 |  |  |  | Conversion of guanosine under competition condition [1, 6]: 23.4% |
| CC(OCCN=[N+]=[N-])C(=O)C=O (stereo not drawn) [drawing 77] | 71.4 | 60.8 |  |  |  | Conversion of guanosine under competition condition [1, 6]: 28.9% |
| CC(C)(OCCN=[N+]=[N-])C(=O)C=O [drawing 78] | 51.6 | 55.9 |  |  |  | Conversion of guanosine under competition condition [1, 6]: 33.6% |
| CC(C(=O)C=O)N(C)C(=O)CN=[N+]=[N-] (stereo not drawn) [drawing 71] |  |  |  |  |  | Conversion of guanosine ([2]; pH = 5.8, 4 h after adjusting from pH 10.1, 1:1 ratio): 31.9%; Conversion of guanosine ([2]; pH = 5.8, 24 h after adjusting from pH 10.1, 1:1 ratio): 26.5%; Conversion of guanosine ([2]; pH = 10.1, 10 min, kethoxal derivative and guanosine 1:1): 35.6% |
| O=CC(=O)Cc1ccccc1 [drawing 60] |  |  | 22.5 | 30.4 | 9.0 |  |
| CC(Br)C(=O)C=O (stereo not drawn) [drawing 82] | 46.2 | 38.2 |  |  |  | Conversion of guanosine under competition condition [1, 6]: 18.6% |
| CCN(CC)C(C)C(=O)C=O (stereo not drawn) | 66.9 | 66.1 |  |  |  | Conversion of guanosine under competition condition [1, 6]: 36.3% |
| O=CC(=O)c1ccccc1 [drawing 88] | 25.7 | 12.3 |  |  |  | Conversion of guanosine under competition condition [1, 6]: 4.4% |
| [N-]=[N+]=NCCOC(F)C(=O)C=O (stereo not drawn) [drawing 58] |  |  | 6.4 | 8.2 | 3.2 | Conversion rate of guanosine ([3]; pH = 7.0, S1:S2 = 1:0): 24.7%; Conversion rate of guanosine ([3]; pH = 7.0, S1:S2 = 1:4): 16.5% |
| CC(C(=O)C=O)N(C)C(=O)CN=[N+]=[N-] (stereo not drawn) [drawing 55] |  |  | 46.2 | 64.2 | 20.4 | Conversion rate of guanosine ([3]; pH = 7.0, S1:S2 = 1:4): 84.7% |
| CC(OCCN=[N+]=[N-])C(=O)C=O (stereo not drawn) [drawing 46] |  |  | 70.6 | 93.7 | 39.6 |  |
| [N-]=[N+]=NCCOCC(=O)C=O [drawing 48] |  |  | 52.2 | 79.2 | 30.3 |  |
| [N-]=[N+]=NCCOCC(=O)C=O [drawing 33] |  |  |  |  |  | Conversion rate of guanosine ([3]; pH = 7.8, S1:S2 = 1:1): 78.6%; Conversion rate of guanosine ([3]; pH = 7.8, S1:S2 = 1:2): 95.4%; Conversion rate of guanosine [3, 7]: 51.3% |
| [N-]=[N+]=NCCOC(F)(F)C(=O)C=O [drawing 59] |  |  | 1.4 | 1.9 | 0 | Conversion rate of guanosine ([3]; pH = 7.0, S1:S2 = 1:0): 9.8%; Conversion rate of guanosine ([3]; pH = 7.0, S1:S2 = 1:4): 3.8% |
| O=CC(=O)c1ccc([N+](=O)[O-])cc1 | 48.0 | 13.5 |  |  |  |  |
| CC(OC(=O)CN=[N+]=[N-])C(=O)C=O (stereo not drawn) [drawing 34] |  |  |  |  |  | Conversion rate of guanosine ([3]; pH = 7.8, S1:S2 = 1:1): 77.5%; Conversion rate of guanosine ([3]; pH = 7.8, S1:S2 = 1:2): 92.1%; Conversion rate of guanosine [3, 7]: 43.6% |
| CC(N=[N+]=[N-])C(=O)C=O (stereo not drawn) [drawing 35] |  |  |  |  |  | Conversion rate of guanosine ([3]; pH = 7.8, S1:S2 = 1:1): 71.2%; Conversion rate of guanosine ([3]; pH = 7.8, S1:S2 = 1:2): 90.3%; Conversion rate of guanosine ([3]; pH = 7.8, S1:S2 = 1:3): 96.5%; Conversion rate of guanosine [3, 7]: 38.0% |
| [N-]=[N+]=NCCCC(=O)C=O [drawing 54] |  |  | 40.8 | 63.2 | 19.8 | Conversion rate of guanosine ([3]; pH = 7.0, S1:S2 = 1:4): 87.2% |
| [N-]=[N+]=NCCOCCC(=O)C=O [drawing 56] |  |  | 38.3 | 49.6 | 16.8 |  |
| CC(N=[N+]=[N-])C(=O)C=O (stereo not drawn) [drawing 50] |  |  | 46.7 | 79.2 | 22.0 | Conversion rate of guanosine ([3]; pH = 7.0, S1:S2 = 1:4): 95.3% |
| [N-]=[N+]=NCCOC(F)C(=O)C=O (stereo not drawn) [drawing 43] |  |  |  |  |  | Conversion rate of guanosine ([3]; pH = 7.8, S1:S2 = 1:1): 30.9%; Conversion rate of guanosine ([3]; pH = 7.8, S1:S2 = 1:2): 49.6%; Conversion rate of guanosine ([3]; pH = 7.8, S1:S2 = 1:3): 69.5%; Conversion rate of guanosine ([3]; pH = 7.8, S1:S2 = 1:5): 76.7%; Conversion rate of guanosine ([3]; pH = 7.8, S1:S2 = 1:10): 81.6% |
| CC(N=[N+]=[N-])C(=O)C=O (stereo not drawn) [drawing 81] | 56.5 | 40.9 |  |  |  |  |
| O=CC(=O)c1ccccc1 [drawing 57] |  |  | 22.5 | 33.2 | 9.9 | Conversion rate of guanosine ([3]; pH = 7.0, S1:S2 = 1:4): 51.5% |
